Results as given in PubChem BioAssay AID1963828 (Molecular Pharmacology Branch, DTP, NCI, 2024).

Test system: 991263-137-R1-J2-PDC complex spheroid viability
Assay: Anticancer human tumor 991263-137-R1-J2-PDC patient-derived colon adenocarcinoma cell line growth inhibition [POLQ]
Conditions: for IC50: curve of first compound; for viability, T/C: stronger effect = lower value
In short: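 Growth inhibition in 3D: complex spheroids (tumor PDC, HUVEC, MSC) treated with POLQ inhibitor combinations; where Cmax unknown, highest tested concentration 10 microM, except SN-38 at 1 microM.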

[1] = second compound 0.0316 µM, first compound 0.0316 µM
[2] = second compound 0.0316 µM, first compound 0.1 µM
[3] = second compound 0.0316 µM, first compound 0.316 µM
[4] = second compound 0.0316 µM, first compound 1 µM
[5] = second compound 0.0316 µM, first compound 3.16 µM
[6] = second compound 0.0316 µM, first compound 10 µM
[7] = second compound 0.1 µM, first compound 0.0316 µM
[8] = second compound 0.1 µM, first compound 0.1 µM
[9] = second compound 0.1 µM, first compound 0.316 µM
[10] = second compound 0.1 µM, first compound 1 µM
[11] = second compound 0.1 µM, first compound 3.16 µM
[12] = second compound 0.1 µM, first compound 10 µM
[13] = second compound 0.316 µM, first compound 0.0316 µM
[14] = second compound 0.316 µM, first compound 0.1 µM
[15] = second compound 0.316 µM, first compound 0.316 µM
[16] = second compound 0.316 µM, first compound 1 µM
[17] = second compound 0.316 µM, first compound 3.16 µM
[18] = second compound 0.316 µM, first compound 10 µM
[19] = second compound 1 µM, first compound 0.0316 µM
[20] = second compound 1 µM, first compound 0.1 µM
[21] = second compound 1 µM, first compound 0.316 µM
[22] = second compound 1 µM, first compound 1 µM
[23] = second compound 1 µM, first compound 3.16 µM
[24] = second compound 1 µM, first compound 10 µM
[25] = second compound 3.16 µM, first compound 0.0316 µM
[26] = second compound 3.16 µM, first compound 0.1 µM
[27] = second compound 3.16 µM, first compound 0.316 µM
[28] = second compound 3.16 µM, first compound 1 µM
[29] = second compound 3.16 µM, first compound 3.16 µM
[30] = second compound 3.16 µM, first compound 10 µM
[31] = second compound 10 µM, first compound 0.0316 µM
[32] = second compound 10 µM, first compound 0.1 µM
[33] = second compound 10 µM, first compound 0.316 µM
[34] = second compound 10 µM, first compound 1 µM
[35] = second compound 10 µM, first compound 3.16 µM
[36] = second compound 10 µM, first compound 10 µM
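Also: spheroids exposed to compounds for 7 days before readout.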
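For viability, T/C in this document: 100% = DMSO vehicle control viability.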

Q: With `CCc1cc2c(N3CCc4c(cc(Cn5ccnc5)cc4-c4cn(C)nc4C(F)(F)F)C3=O)ccnc2c(OC)n1` + Nc1ccc(C#CCN(C(=O)Cc2ncc(C(F)(F)F)cc2C(F)(F)F)c2ccc(F)cc2)nn1 as the compound, how does the IC50 (second compound 0.0316 µM) read?
A: > 10 µM

Q: What about the IC50 (second compound 0.1 µM) of the same compound?
A: > 10 µM

Q: What about the IC50 (second compound 0.316 µM) of the same compound?
A: > 10 µM

Q: And the IC50 (second compound 1 µM)?
A: > 10 µM

Q: And the IC50 (second compound 3.16 µM)?
A: > 10 µM

Q: And the IC50 (second compound 10 µM)?
A: > 10 µM

Q: And the viability, T/C [1]?
A: 118%

Q: And the viability, T/C [2]?
A: 109%

Q: And the viability, T/C [3]?
A: 101%

Q: What about the viability, T/C [4] of the same compound?
A: 92.2%

Q: And the viability, T/C [5]?
A: 91.5%

Q: What about the viability, T/C [6] of the same compound?
A: 88.7%

Q: What about the viability, T/C [7] of the same compound?
A: 97.1%

Q: What about the viability, T/C [8] of the same compound?
A: 103%

Q: What about the viability, T/C [9] of the same compound?
A: 108%

Q: And the viability, T/C [10]?
A: 101%

Q: And the viability, T/C [11]?
A: 96%

Q: And the viability, T/C [12]?
A: 90.2%

Q: And the viability, T/C [13]?
A: 107%

Q: And the viability, T/C [14]?
A: 99.8%

Q: And the viability, T/C [15]?
A: 106%

Q: What about the viability, T/C [16] of the same compound?
A: 111%

Q: And the viability, T/C [17]?
A: 103%

Q: And the viability, T/C [18]?
A: 79.3%

Q: And the viability, T/C [19]?
A: 95.1%

Q: And the viability, T/C [20]?
A: 107%

Q: And the viability, T/C [21]?
A: 108%

Q: What about the viability, T/C [22] of the same compound?
A: 91.9%

Q: And the viability, T/C [23]?
A: 97.4%

Q: What about the viability, T/C [24] of the same compound?
A: 95.7%

Q: And the viability, T/C [25]?
A: 116%

Q: And the viability, T/C [26]?
A: 112%

Q: And the viability, T/C [27]?
A: 87%

Q: And the viability, T/C [28]?
A: 101%

Q: What about the viability, T/C [29] of the same compound?
A: 95.3%

Q: And the viability, T/C [30]?
A: 89.6%

Q: What about the viability, T/C [31] of the same compound?
A: 95.1%

Q: What about the viability, T/C [32] of the same compound?
A: 102%

Q: What about the viability, T/C [33] of the same compound?
A: 107%

Q: What about the viability, T/C [34] of the same compound?
A: 89.8%

Q: What about the viability, T/C [35] of the same compound?
A: 86.4%

Q: And the viability, T/C [36]?
A: 82.9%

Q: What does the source list for `COc1ccc([C@@H](O)c2cc(-c3ncnc4cc(N5CCOCC5)ccc34)c(F)cc2Cl)nn1` + Nc1ccc(C#CCN(C(=O)Cc2ncc(C(F)(F)F)cc2C(F)(F)F)c2ccc(F)cc2)nn1?
A: IC50 (second compound 0.0316 µM): 5.34 µM; IC50 (second compound 0.1 µM): 4.8 µM; IC50 (second compound 0.316 µM): 6.69 µM; IC50 (second compound 1 µM): 5.15 µM; IC50 (second compound 3.16 µM): 4.04 µM; IC50 (second compound 10 µM): 2.96 µM; viability, T/C [1]: 110%; viability, T/C [2]: 96.3%; viability, T/C [3]: 93.1%; viability, T/C [4]: 88.9%; viability, T/C [5]: 66.2%; viability, T/C [6]: 30.4%; viability, T/C [7]: 105%; viability, T/C [8]: 120%; viability, T/C [9]: 91.1%; viability, T/C [10]: 85.6%; viability, T/C [11]: 59.2%; viability, T/C [12]: 33.8%; viability, T/C [13]: 100%; viability, T/C [14]: 105%; viability, T/C [15]: 96.5%; viability, T/C [16]: 98.2%; viability, T/C [17]: 87.9%; viability, T/C [18]: 29.5%; viability, T/C [19]: 107%; viability, T/C [20]: 101%; viability, T/C [21]: 99.5%; viability, T/C [22]: 93.7%; viability, T/C [23]: 64.7%; viability, T/C [24]: 29.6%; viability, T/C [25]: 97.1%; viability, T/C [26]: 102%; viability, T/C [27]: 87.1%; viability, T/C [28]: 94%; viability, T/C [29]: 55.5%; viability, T/C [30]: 29.5%; viability, T/C [31]: 99.9%; viability, T/C [32]: 95.6%; viability, T/C [33]: 95.4%; viability, T/C [34]: 82.5%; viability, T/C [35]: 48%; viability, T/C [36]: 28.6%
